According to publication PMC12263422, “Cryo-EM structure of the human THIK-1 K2P K^+ channel reveals a lower Y gate regulated by lipids and anesthetics” (Nature Structural & Molecular Biology, 2025):
Substitutions are numbered along the chain they refer to. Values joined by “and” are separate entries in the source; they are usually repeats but may differ in a detail not shown here. Equal entries are not always repeated. Where two headings read alike, the source gives them in different places.

Assays:
THIK-1 V269A = target: T1, THIK-1 V269A (Homo sapiens, UniProt Q9HB14, V269A); assay: Inside-out excised patch recordings, oocytes, THIK-1 V269A mutant; type: cell-based; conditions: for IC50: read-out: TPenA IC50
T1 construct: expressed in transfected cells; host or cells: Xenopus oocytes (mRNA injection)
T1 sequence (Q9HB14 1-408 V269A): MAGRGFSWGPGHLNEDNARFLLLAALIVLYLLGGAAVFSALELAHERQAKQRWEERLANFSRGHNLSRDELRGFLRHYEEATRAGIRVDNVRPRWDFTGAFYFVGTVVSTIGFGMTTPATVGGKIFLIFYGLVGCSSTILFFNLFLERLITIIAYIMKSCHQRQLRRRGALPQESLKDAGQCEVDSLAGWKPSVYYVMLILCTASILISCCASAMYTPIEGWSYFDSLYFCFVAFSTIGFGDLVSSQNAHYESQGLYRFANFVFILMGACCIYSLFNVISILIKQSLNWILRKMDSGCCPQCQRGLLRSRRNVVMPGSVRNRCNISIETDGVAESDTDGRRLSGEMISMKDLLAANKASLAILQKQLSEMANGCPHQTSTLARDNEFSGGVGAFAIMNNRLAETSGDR
From the text: (§1) Human K2P13.1 THIK-1 (GenBank accession number: NM_022054) and human K2P12.1 THIK-2 (NM_022055.1) were used in this study. For functional expression studies, the respective K^+ channel subtype coding sequences were subcloned into the oocyte expression vector pSGEM or the dual-purpose expression vector pFAW[41] and verified by sequencing. All mutant channels were obtained by site-directed mutagenesis and verified by sequencing. To increase surface expression and macroscopic currents, measurements of THIK-2 channels used a mutated ER retention motif, (R11A R12A R14A R15A R16A; THIK-2*)[20]. Vector DNA was linearized with NheI or MluI, and mRNA was synthesized in vitro using the SP6 or T7 AmpliCap Max High Yield Message Maker Kit (Cellscript, USA) or HiScribe T7 ARCA mRNA Kit (New England Biolabs).
(§2) Two-electrode voltage–clamp (TEVC) studies were performed in Xenopus oocytes. All animal use conformed to the Guide for the Care and Use of Laboratory Animals (NIH Publication 85–23), and all experiments using Xenopus toads were approved by the local ethics panels. Oocytes were stored at 17 °C in ND96 recording solution composed of (in mM): 96 NaCl, 2 KCl, 1.8 CaCl2, 1 MgCl2, 5 HEPES (pH 7.5 adjusted with NaOH and HCl), supplemented with Na-pyruvate (275 mg L^–1), theophylline (90 mg L^–1) and gentamicin (50 mg L^–1). Oocytes were injected with 1 ng mRNA for WT or mutant channels, and were incubated for 24–48 h at 17 °C. Two-electrode voltage clamp recordings were then performed as previously described[42],[43]. For macroscopic patch–clamp measurements, oocytes were obtained as described above incubated at 17 °C in a solution containing (mM): 54 NaCl, 30 KCl, 2.4 NaHCO3, 0.82 MgSO4 ×7 H2O, 0.41 CaCl2, 0.33 Ca(NO3)2 ×4 H2O and 7.5 TRIS (pH 7.4 adjusted with NaOH and HCl) for 1–4 days before use. Excised patch recordings in inside-out configuration conditions were performed at room temperature. Patch pipettes were made from thick-walled borosilicate glass GB 200TF-8P (Science Products), had resistances of 0.2–0.5 MΩ (tip diameter, 10–25 µm) and filled with a pipette solution (in mM): 120 KCl, 10 HEPES and 3.6 CaCl2 (pH 7.4 adjusted with KOH and HCl). Intracellular bath solutions and compounds were applied to the cytoplasmic side of excised patches for the various K^+ channels through a gravity flow multi-barrel pipette system. The intracellular solution had the following composition (in mM): 120 KCl, 10 HEPES, 2 EGTA and 1 pyrophosphate (pH adjusted with KOH and HCl). Currents were recorded with an EPC10 amplifier (HEKA Electronics) and sampled at 10 kHz or higher, with filtering set to 3 kHz (–3 dB) or higher, as appropriate for sampling rate. For measurements of GPCR activation, whole-cell currents were recorded for THIK-1 in transiently transfected HEK-293 cells. Cells were stimulated by a ramp protocol between −100 and +60 mV (holding potential, −80 mV). The pipette solution was composed of (in mM): 140 KCl, 2 MgCl2, 1 CaCl2, 2.5 EGTA and 10 HEPES (pH 7.3 adjusted with KOH and HCl). The extracellular bath solution had the following composition (in mM): 135 NaCl, 5 KCl, 2 MgCl2, 2 CaCl2, 10 glucose and 10 HEPES pH (pH 7.3 adjusted with NaOH and HCl). Oxotremorine M (Oxo-M) was added to extracellular bath solution to obtain the final concentration. Single-channel currents were recorded with an Axopatch 200B amplifier through a Digidata 1440A digitizer (Molecular Devices). Data were filtered at 2 kHz and recorded at a 200-kHz sampling rate with the program Clampex (Molecular Devices). Pipette solution and bath solution for cell-attached recordings contained (in mM): 140 KCl, 2 MgCl2, 1 CaCl2 and 10 HEPES (pH 7.4 adjusted with KOH and HCl). For inside-out recordings, the bath solution contained (in mM): 140 KCl, 2 MgCl2, 1 CaCl2 and 10 HEPES (pH 7.2 adjusted with KOH and HCl). All experiments were conducted at room temperature. […]

THIK-1 Y273A/I139A = target: T2, THIK-1 Y273A/I139A (Homo sapiens, UniProt Q9HB14, I139A/Y273A); assay: Inside-out excised patch recordings, oocytes, THIK-1 Y273A/I139A double mutant; type: cell-based; conditions: for τ of 1 mM TPenA block / τ of 1 mM TPenA release: I139A/Y273A; for Normalized currents: THIK-1 Y273A/I139A
T2 construct: expressed in transfected cells; host or cells: Xenopus oocytes (mRNA injection)
T2 sequence (Q9HB14 1-408 I139A/Y273A): T1 sequence (Q9HB14 1-408 V269A) with I139A, A269V, Y273A
From the text: as §1, §2

**Q.** CCCCC[N+](CCCCC)(CCCCC)CCCCC [TPenA, tetrapentylammonium] was tested. Which Normalized currents (THIK-1 V269A; THIK-1 V269A, 1 µM TPenA) did it give?
**A.** 1.00

**Q.** What about the Normalized currents (THIK-1 V269A; THIK-1 V269A, 4 µM TPenA) of the same compound?
**A.** 0.97

**Q.** What about the Normalized currents (THIK-1 V269A; THIK-1 V269A, 15.6 µM TPenA) of the same compound?
**A.** 0.93

**Q.** What about the Normalized currents (THIK-1 V269A; THIK-1 V269A, 62.5 µM TPenA) of the same compound?
**A.** 0.87

**Q.** What about the Normalized currents (THIK-1 V269A; THIK-1 V269A, 250 µM TPenA) of the same compound?
**A.** 0.78

**Q.** And the Normalized currents (THIK-1 V269A; THIK-1 V269A, 1000 µM TPenA)?
**A.** 0.65

**Q.** What about the Normalized currents (THIK-1 V269A; THIK-1 V269A, 4000 µM TPenA) of the same compound?
**A.** 0.45

**Q.** And the IC50 (THIK-1 V269A; THIK-1 V269A, mean)?
**A.** 2200 µM

**Q.** And the IC50 (THIK-1 V269A; V269A mutant)?
**A.** 2200 µM

**Q.** And the “τ of 1 mM TPenA block” value (THIK-1 Y273A/I139A; individual recordings)?
**A.** 0.121 s and 0.062 s and 0.131 s and 0.164 s and 0.120 s and 0.094 s and 0.191 s and 0.111 s and 0.116 s and 0.183 s and 0.093 s and 0.084 s and 0.142 s and 0.070 s and 0.095 s and 0.042 s

**Q.** And the “τ of 1 mM TPenA release” value (THIK-1 Y273A/I139A; individual recordings)?
**A.** 0.960 s and 0.559 s and 1.130 s and 0.565 s and 0.799 s and 0.283 s and 0.914 s and 0.634 s and 0.842 s and 0.928 s and 0.662 s and 0.571 s and 0.449 s and 0.371 s and 1.055 s

**Q.** And the “τ of 1 mM TPenA block” value (THIK-1 Y273A/I139A; mean)?
**A.** 0.11 s

**Q.** What about the “τ of 1 mM TPenA release” value (THIK-1 Y273A/I139A; mean) of the same compound?
**A.** 0.71 s

**Q.** What about the Normalized currents (THIK-1 Y273A/I139A; TPenA 0.1 µM) of the same compound?
**A.** 1.00

**Q.** What about the Normalized currents (THIK-1 Y273A/I139A; TPenA 1 µM) of the same compound?
**A.** 0.95

**Q.** What about the Normalized currents (THIK-1 Y273A/I139A; TPenA 4 µM) of the same compound?
**A.** 0.90

**Q.** What about the Normalized currents (THIK-1 Y273A/I139A; TPenA 15.6 µM) of the same compound?
**A.** 0.68

**Q.** What about the Normalized currents (THIK-1 Y273A/I139A; TPenA 62.5 µM) of the same compound?
**A.** 0.47

**Q.** And the Normalized currents (THIK-1 Y273A/I139A; TPenA 250 µM)?
**A.** 0.22

**Q.** And the Normalized currents (THIK-1 Y273A/I139A; TPenA 1000 µM)?
**A.** 0.08

**Q.** What about the Normalized currents (THIK-1 Y273A/I139A; TPenA 4000 µM) of the same compound?
**A.** 0.03
